pIC50: −log10 of the molar value.

The target in test [1] is T1, SENP1 (Homo sapiens, UniProt Q9P0U3).
T1 sequence (Q9P0U3 1-644): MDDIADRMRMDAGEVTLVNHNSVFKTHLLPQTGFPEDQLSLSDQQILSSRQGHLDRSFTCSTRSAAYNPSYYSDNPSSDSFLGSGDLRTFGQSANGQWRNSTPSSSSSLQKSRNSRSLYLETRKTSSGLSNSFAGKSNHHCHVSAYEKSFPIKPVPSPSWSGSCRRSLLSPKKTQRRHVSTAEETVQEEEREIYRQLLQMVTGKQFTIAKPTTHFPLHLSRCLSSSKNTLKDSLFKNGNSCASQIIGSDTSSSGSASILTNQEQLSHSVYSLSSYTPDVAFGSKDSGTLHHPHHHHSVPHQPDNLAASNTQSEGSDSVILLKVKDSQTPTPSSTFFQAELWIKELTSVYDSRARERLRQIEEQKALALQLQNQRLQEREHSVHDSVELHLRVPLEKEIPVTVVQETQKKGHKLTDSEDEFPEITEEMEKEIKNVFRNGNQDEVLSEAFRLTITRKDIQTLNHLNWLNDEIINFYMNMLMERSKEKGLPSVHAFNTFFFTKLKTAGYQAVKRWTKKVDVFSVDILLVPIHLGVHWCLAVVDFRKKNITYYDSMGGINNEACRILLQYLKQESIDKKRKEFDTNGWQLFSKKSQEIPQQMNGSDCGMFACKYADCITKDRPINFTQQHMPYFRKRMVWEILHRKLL
In words: SENP1 inhibition in IGROV1 cells (SUMOylated JAK2, Western blot). It is filed as cell-based. Also noted: endogenous in cells; host or cells: IGROV1. Conditions: incubated 48 hours, read-out: inhibited deSUMOylation of JAK2 with IC50. On the procedure: FIGS. 11A-11L depict images illustrating identification of a novel potent SENP1 inhibitor, UA. FIGS. 11A and 11B show Mc (FIG. 11A) and UA (FIG. 11B) inhibited SENP1 activity in vivo. IGROV1 cells were incubated with Mc or UA for 48 hours and harvested for Western blot for indicated proteins. […]. Intensity of SUMOylated JAK2 in B was measured by Quantity One software. FIGS. 11D and 11E show Mc (FIG. 11D) and UA (FIG. 11E) inhibited SENP1 activity in vitro. Recombinant His-JAK2 was SUMOylated as in FIG. 2F, followed by incubation with recombinant GST-SENP1 together with Mc or UA for 3 hours (h). […]. Intensity of SUMOylated JAK2 was measured by Quantity One software. […] SENP1 stability was analyzed using Western blot against SENP1 antibody in IGROV1 cells. […] SENP1 stability was analyzed by using Western blot against SENP1 antibody. […] Green: UA; Salmon: interface. Right panel, active residues of SENP1 for SENP1:UA complex. Green: UA; Salmon: active residues. […] Stability of SENP1-C603A was analyzed by using Western blot against SENP1 antibody
To determine the functional consequence of SENP1-JAK2 interaction, it was examined whether inhibition of SENP1 affected SUMOylation of JAK2. To this end, JAK2 was immunoprecipitated and the SUMOylation level of JAK2 was evaluated using an antibody against SUMO2/3 in SENP1 depleted cells.

The target in test [2] is T1, SENP1. In words: In vitro deSUMOylation assay with recombinant His-JAK2 and GST-SENP1. The class given is biochemical. Also noted: made in house; host or cells: E. coli BL21 (DE3) for pET28a-JAK2. On the procedure: To further determine whether SENP1 can directly deSUMOylate JAK2, in vitro deSUMOylation assays were performed by using purified recombinant His-JAK2 and GST-SENP1 proteins.
In vitro SUMOylation assay. The SUMOylation reactions were performed according to the manufacture's instruction (BML-UW8955-0001; ENZO). Briefly, 200 nM of purified HIS-JAK2 was suspended in reaction buffer (20 μl) containing Mg-ATP, SUMO E1, SUMO E2 and recombinant SUMOs. RanGAP1 (provided in the kit) was used as the substrate for positive control. The reaction was incubated at 37° C. for 60 minutes and terminated by using 20 μl of SDS loading buffer. […] The reactions were then subjected to Western blot to evaluate SUMOylation level.
Protein expression and purification. pET28a-JAK2 and its mutant was transformed in BL21 (DE3) E. coli cells by heat shot method at 42° C. and grown in Luria Broth (LB) at 37° C. E. coli cells were induced with 0.5 mM IPTG to induct protein expression. Cells were harvested by centrifugation at 5,000 g, 4° C. for 15 min and the pellet was resuspended in lysis buffer (20 mM Tris pH 7.9, 500 mM NaCl, 5 mM imidazole, 2 mM DTT and 1× protease inhibitor cocktail). Cells were then sonicated and centrifuged at 14,000 g, 4° C. for 15 min. 1 ml of Ni-NTA was added to the supernatant and incubated at 4° C. with end-to-end mixing for 2 hours and subjected to a column. The Ni-NTA resin was washed with 10 ml wash buffer (20 mM Tris pH 7.9, 250 mM NaCl, 15 mM Imidazole and 0.5 mM DTT) and eluted with 1 ml elution buffer (20 mM Tris pH 7.9, 250 mM NaCl and 1 M imidazole). The elute was then concentrated by using a protein concentrator (Thermo Scientific™ Pierce™) and resuspend in dialysis buffer (50 mM Tris pH 7.9, 50 mM NaCl, 2 mM DTT, and 10% glycerol). The purified protein was stored at −80° C. pGEX-4T1-SENP1 and its mutant were purified using following buffers: lysis buffer (1 mM DTT, and lx protease inhibitor cocktail, 800 mM NaCl, 5 mM EDTA, 50 mM Tris-pH8.0, 0.1% Triton x-100), wash buffer (800 mM NaCl, 5 mM EDTA, 50 mM Tris-pH8.0, 0.1% Triton x-100), elution buffer (40 mM glutathione, 800 mM NaCl, 5 mM EDTA, 50 mM Tris-pH8.0, 0.1% Triton x-100), dialysis buffer (50 mM Tris pH 7.9, 50 mM NaCl, 2 mM DTT, and 10% glycerol).

Setting [3] is: recombinant GST-SENP1, 3 hours, read-out: IC50 to inhibit deSUMOylation of His-JAK2 in vitro.

The term pIC50 denotes the IC50 on a negative log10 scale, so that one unit is a factor of ten. Turning to `CC1(C)CC[C@]2(C(=O)O)CC[C@]3(C)C(=CC[C@@H]4[C@@]5(C)CC[C@H](O[C@@H]6O[C@H](C(=O)O)[C@@H](O)[C@H](O[C@@H]7OC[C@@H](O)[C@H](O)[C@H]7O)[C@H]6O)C(C)(C)[C@@H]5CC[C@]43C)[C@@H]2C1` [Mc, Momordin Ic], the pIC50 was 4.50 in test [1]; 4.81 in test [2] (in vitro, read-out: SENP1 activity was inhibited with IC50); 4.70 in test [2] (setting [3]).

Turning to `C[C@H]1[C@H](C)CC[C@]2(C(=O)O)CC[C@]3(C)C(=CC[C@@H]4[C@@]5(C)CC[C@H](O)C(C)(C)[C@@H]5CC[C@]43C)[C@H]12` [UA, ursolic acid], the results for the pIC50 in test [1] and in test [2] (setting [3]) were 6.62 and 8.19, respectively. Moreover, the “fold more potency to inhibit deSUMOylation of His-JAK2 in vitro than Mc” value in test [2] (UA versus Mc) is on record as 3000 fold.

For the origin of these results see patent US20230012172A1, “COMPOSITIONS AND METHODS FOR TREATMENT OF PLATINUM-BASED CHEMOTHERAPEUTIC RESISTANT TUMORS” (The George Washington University, priority 2020, published 2023).
